Measured values reported in US20260376293A1, “METHODS FOR STUDYING GPR158 PHARMACOLOGY AND IDENTIFICATION OF ITS LIGANDS” (UNIVERSITY OF FLORIDA RESEARCH FOUNDATION, INCORPORATED, priority 2022, published 2026).

What was measured:
[1] = target: T1, GPR158 (Homo sapiens, UniProt Q5T848); test: BRET β-arrestin recruitment assay; assay type: cell-based; parameters: expressed in transfected cells; host or cells: HEK293 (HEK293FT in the BRET methods); details: yPET-β-arrestin-2, HEK293 cells
T1 sequence (Q5T848 24-1215): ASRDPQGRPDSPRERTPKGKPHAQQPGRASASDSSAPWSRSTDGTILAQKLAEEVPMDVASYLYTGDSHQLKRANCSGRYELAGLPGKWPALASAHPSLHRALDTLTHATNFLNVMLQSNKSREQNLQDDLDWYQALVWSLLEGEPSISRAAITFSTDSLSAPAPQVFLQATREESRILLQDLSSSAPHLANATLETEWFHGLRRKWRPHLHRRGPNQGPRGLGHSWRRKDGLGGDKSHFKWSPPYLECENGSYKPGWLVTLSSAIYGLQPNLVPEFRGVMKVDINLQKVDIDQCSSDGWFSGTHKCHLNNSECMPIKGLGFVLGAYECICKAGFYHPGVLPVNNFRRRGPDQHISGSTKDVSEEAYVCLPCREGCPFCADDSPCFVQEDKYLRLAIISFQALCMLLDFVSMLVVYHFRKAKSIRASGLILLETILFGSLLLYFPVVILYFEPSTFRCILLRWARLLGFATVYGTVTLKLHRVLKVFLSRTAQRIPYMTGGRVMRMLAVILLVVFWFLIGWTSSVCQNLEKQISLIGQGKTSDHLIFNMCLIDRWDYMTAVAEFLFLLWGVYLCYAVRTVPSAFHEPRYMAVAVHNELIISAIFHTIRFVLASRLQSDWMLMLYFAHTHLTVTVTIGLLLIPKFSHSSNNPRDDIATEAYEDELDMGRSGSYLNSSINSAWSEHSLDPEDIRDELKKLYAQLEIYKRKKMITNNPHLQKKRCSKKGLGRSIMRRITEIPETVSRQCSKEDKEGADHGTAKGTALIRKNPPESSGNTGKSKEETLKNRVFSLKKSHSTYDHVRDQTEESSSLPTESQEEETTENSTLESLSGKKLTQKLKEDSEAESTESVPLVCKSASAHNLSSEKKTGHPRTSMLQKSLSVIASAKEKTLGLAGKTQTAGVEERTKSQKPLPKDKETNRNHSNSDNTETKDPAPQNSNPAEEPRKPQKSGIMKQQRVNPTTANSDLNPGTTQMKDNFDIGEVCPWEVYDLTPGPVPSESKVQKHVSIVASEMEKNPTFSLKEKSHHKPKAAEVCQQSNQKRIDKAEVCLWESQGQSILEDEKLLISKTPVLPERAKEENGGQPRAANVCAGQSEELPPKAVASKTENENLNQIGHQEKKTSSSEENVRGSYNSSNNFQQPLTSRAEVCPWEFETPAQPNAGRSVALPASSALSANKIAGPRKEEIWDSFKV
Text: FIGS. 6A-6B. Effect of glycine on GPR158 coupling to β-arrestin. A) Schematic of the BRET based β-arrestin recruitment assay B) Dose response profile evaluating recruitment of β-arrestin using BRET-based recruitment assay that measures association of yPET-β-arrestin-2 with Rluc8-tagged receptor: GPR158 or kOR used as a positive control. Constructs were co-transfected into HEK293 cells stimulated with increasing concentration of U50488 or glycine. Data shown fold over basal of 4 independent experiments performed in triplicate mean±s.e.m.
The inventors further tested whether glycine or taurine could induce GPR158 to activate G proteins as canonical GPCRs do. In these experiments, the inventors used a reverse strategy where the inventors monitored generation of the BRET signal in the same assay (FIG. 5A).
Cells were co-transfected with Rluc-tagged receptors and YPet-β-arrestin2. Coelenterazine H were diluted at 5 μM in BRET buffer and added to cells with glycine or U50488 as indicated. BRET ratio was determined by calculating the ratio of the light emitted by the Venus (535 nm with a 30 nm band path width) over the light emitted by RLuc (475 nm with a 30 nm band path width) in order to measure an increase of the signal when β-arrestin is recruited. BRET ratio was calculated and fold over basal response was plotted as a function of kOR condition.

[2] = target: T1, GPR158; test: BRET cAMP assay in HEK293 cells expressing GPR158; assay type: cell-based; parameters: expressed in transfected cells; host or cells: HEK293FT
Method: FIGS. 2A-2C. Taurine signals through GPR158 to regulate cAMP. A) Time course of taurine (100 μM) effect on cAMP concentration in HEK293 cells. Cells were transfected with indicated constructs and cAMP was measured by the BRET assay. B) Quantification of taurine effect on maximal amplitude of the cAMP response. Data shown represent mean±s.e.m. determined from 3-9 independent experiments performed in triplicate. ****p<0.001 (one-way ANOVA). Columns with no fill (Ctrl), columns with angled-line fill (Taurine) C) Comparison of glycine and taurine effects on GPR158-mediated changes in cAMP response. Glycine or taurine was applied to HEK293 cells expressing either GPR158 alone or with RGS7/Gβ5 and the CAMP change was subtracted from the background response in control cells not expressing GPR158. Data shown represent mean±s.e.m. determined from 3 independent experiments performed in triplicate. *p<0.05, ***p<0.01, ns=p>0.05 (one-way ANOVA) Columns with no fill (Ctrl), columns with short-line fill (Glycine), columns with angled-line fill (Taurine).
HEK293FT cells were seeded in a white flat-bottom 96 well plate (Greiner Bio-One) at 50,000 cells per well and transiently transfected using Metafectene Pro with the manufacturer instruction. 24 h after transfection in DMEM complete medium supplemented of 0.1% of Matrigel (Corning), cells were washed with BRET buffer (Dulbecco's Phosphate-Buffered Saline (PBS) containing 0.5 mM MgCl2 and 0.1% glucose). The RLuc (Renilla luciferase) substrate, coelenterazine H (Research Products International Corp, IL), were diluted at 5 μM in BRET buffer and added to cells. BRET measurements were made in living cells using a microplate reader (PHERAstar FSX; BMG Labtech) equipped with two emission photomultiplier tubes. All measurements were performed at 37 °C.
HEK293FT cells or U87 MG cells (ATCC HTB-14) when indicated were co-transfected with the CAMP sensor Camyel and with untagged receptors (respectively: empty vector, GPR158). BRET ratio was determined by calculating the ratio of the light emitted by RLuc (475 nm with a 30 nm band path width) over the light emitted by the Venus (535 nm with a 30 nm band path width) in order to measure an increase of the signal when cAMP increase. ΔBRET was calculated by subtracting the ctrl cell BRET result from GPR158 expressing cells BRET result in order to get specifically the signal from GPR158 removing all the non-specific signal. Finally, netBRET was calculated by subtraction of the baseline value (basal BRET ratio) recorded prior to glycine stimulation from the experimental BRET signal values and the resulting difference (netBRET ratio).

β-arrestin recruitment to GPR158 [1]	type of agonism on GPR158 [2]	cAMP change ([2]; HEK293 cells expressing GPR158, taurine 100 μM)	cAMP change in parental cells ([2]; HEK293 cells without GPR158, taurine 100 μM)	cAMP change with co-expressed RGS7/Gβ5 ([2]; HEK293 cells, GPR158 + RGS7/Gβ5, taurine 100 μM)	GPR158-mediated suppression of cAMP compared with glycine ([2]; HEK293 cells, direct comparison)	SMILES
no significant response	–	–	–	–	–	NCC(=O)O [glycine]
–	partial agonist	significant decrease in cAMP levels	did not produce a response	potentiated by co-expressing RGS7/Gβ5	weaker than the effect of glycine	NCCS(=O)(=O)O [taurine, 2-aminoethanesulfonic acid]
